{"source": "paper PMC10037464", "about": "“Chemical Knockdown of Phosphorylated p38 Mitogen-Activated Protein Kinase (MAPK) as a Novel Approach for the Treatment of Alzheimer′s Disease” (ACS Central Science, 2023)", "key": {"[1]": {"target": "T1, phosphorylated p38 MAPK (p-p38) (Homo sapiens, UniProt Q16539)", "T1 construct": "gene MAPK14; phosphorylated p38 in HEK293T cells", "T1 sequence (Q16539 2-360)": "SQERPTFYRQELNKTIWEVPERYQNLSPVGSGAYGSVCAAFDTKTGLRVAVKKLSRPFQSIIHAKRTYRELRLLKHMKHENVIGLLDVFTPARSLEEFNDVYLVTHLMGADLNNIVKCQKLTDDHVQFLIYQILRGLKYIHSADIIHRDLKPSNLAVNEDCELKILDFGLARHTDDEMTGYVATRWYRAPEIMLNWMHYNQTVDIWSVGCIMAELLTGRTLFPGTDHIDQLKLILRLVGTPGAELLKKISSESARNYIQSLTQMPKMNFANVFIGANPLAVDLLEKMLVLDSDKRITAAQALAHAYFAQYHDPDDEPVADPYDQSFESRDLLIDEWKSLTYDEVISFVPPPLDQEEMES", "T1 sequence (Q96SW2 whole entry partner)": "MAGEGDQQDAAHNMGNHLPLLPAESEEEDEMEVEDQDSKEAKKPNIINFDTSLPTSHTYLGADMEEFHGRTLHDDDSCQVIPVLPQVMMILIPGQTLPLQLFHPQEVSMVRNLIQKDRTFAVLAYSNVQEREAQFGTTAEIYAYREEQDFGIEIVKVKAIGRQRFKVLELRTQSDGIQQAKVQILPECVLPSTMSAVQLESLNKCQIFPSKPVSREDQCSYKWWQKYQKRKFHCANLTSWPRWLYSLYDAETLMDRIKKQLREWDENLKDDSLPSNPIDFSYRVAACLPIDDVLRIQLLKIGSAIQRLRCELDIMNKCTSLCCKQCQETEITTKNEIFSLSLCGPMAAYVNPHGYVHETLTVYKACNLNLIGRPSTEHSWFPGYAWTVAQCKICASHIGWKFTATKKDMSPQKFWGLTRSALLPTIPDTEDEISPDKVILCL", "experiment": "CRBN- and proteasome-dependent degradation in cells (immunoblot DC50)", "assay_type": "cell-based"}, "[2]": {"target": "T2, p38 MAPK, active phosphomimetic mutant (Homo sapiens, UniProt Q16539, D176A)", "T2 construct": "gene MAPK14; p38 active form expressed in HEK293T cells", "T2 sequence (Q16539 2-360 D176A)": "as the sequence (Q16539 2-360) above, with D175A counted along it", "experiment": "degradation of expressed mutant in HEK293T cells (immunoblot)", "assay_type": "cell-based"}}, "data": [{"smiles": "Cc1ccc(C(=O)NC2CC2)cc1-c1ccc(C(=O)c2ccc(OCCOCCOC(=O)Nc3cccc4c3C(=O)N(C3CCC(=O)NC3=O)C4=O)cc2)cc1", "note": "(centres unmarked) [compound 2, PRZ-18002]", "values": [{"measurement": "DC50", "setting": "[1]", "result": 93, "unit": "nM"}, {"measurement": "degradation of expressed mutant in HEK293T cells (immunoblot)", "setting": "[2]", "result": "significant reduction of active p38 mutant (D176A) in preference to wild-type p38"}]}]}
